{"source": "paper PMC11425824", "about": "(ACS Omega, 2024)", "key": {"CDK1": {"molecular_target": "CDK1 (Homo sapiens, UniProt P06493)", "sequence (P20248 whole entry)": "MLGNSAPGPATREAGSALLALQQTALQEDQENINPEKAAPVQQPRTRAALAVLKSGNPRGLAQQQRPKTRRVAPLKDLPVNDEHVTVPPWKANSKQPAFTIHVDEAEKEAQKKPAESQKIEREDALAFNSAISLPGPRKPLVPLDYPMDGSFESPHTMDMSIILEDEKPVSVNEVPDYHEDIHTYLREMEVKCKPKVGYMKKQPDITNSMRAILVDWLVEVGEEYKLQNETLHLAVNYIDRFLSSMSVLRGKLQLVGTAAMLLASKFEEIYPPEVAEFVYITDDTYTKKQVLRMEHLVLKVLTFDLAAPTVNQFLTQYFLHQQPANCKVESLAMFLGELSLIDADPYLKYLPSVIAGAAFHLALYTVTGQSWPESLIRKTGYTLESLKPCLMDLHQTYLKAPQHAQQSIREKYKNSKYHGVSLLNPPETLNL", "sequence (P06493 whole entry)": "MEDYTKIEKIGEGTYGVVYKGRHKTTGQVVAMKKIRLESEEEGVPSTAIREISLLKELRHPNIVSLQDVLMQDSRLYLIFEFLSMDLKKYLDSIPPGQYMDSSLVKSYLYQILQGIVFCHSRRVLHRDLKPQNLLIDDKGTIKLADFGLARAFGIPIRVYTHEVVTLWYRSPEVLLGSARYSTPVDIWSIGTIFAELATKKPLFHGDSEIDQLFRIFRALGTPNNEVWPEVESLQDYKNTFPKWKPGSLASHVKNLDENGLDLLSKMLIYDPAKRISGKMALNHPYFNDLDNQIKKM", "assay": "In vitro CDK1 kinase assay", "type": "biochemical"}, "[1]": {"settings": "cited from earlier work"}, "primary hepatocytes": {"test_system": "primary hepatocytes", "settings": "cited from earlier work"}, "[2]": {"settings": "cited from earlier work", "remark": "listed apart in the source"}}}
{"smiles": "CC(C)OC(=O)[C@H](C)N[P@](=O)(CO[C@H](C)Cn1cnc2c(N)ncnc21)Oc1ccccc1", "note": "[DB_1, tenofovir alafenamide]", "values": [{"measurement": "IC50", "setting": "CDK1", "result": 2.82, "unit": "µM"}, {"measurement": "Cytotoxicity profile", "setting": "[1]", "result": "minimal cytotoxic effects"}, {"measurement": "Mitochondrial toxicity", "setting": "[1]", "result": "low potential for mitochondrial toxicity"}]}
{"smiles": "CCO[C@@H](Cc1ccc(OCCc2ccc(OS(C)(=O)=O)cc2)cc1)C(=O)O", "note": "[DB_6, tesaglitazar]", "values": [{"measurement": "Toxicity to primary hepatocytes", "setting": "primary hepatocytes", "result": "no significant toxicity"}, {"measurement": "IC50", "setting": "CDK1", "result": 4.37, "unit": "µM"}]}
{"smiles": "Cc1cc2cc(Oc3ccnc(Nc4cccc(CS(=O)(=O)NCCN(C)C)c4)n3)ccc2[nH]1", "note": "[DB_7, Surufatinib]", "values": [{"measurement": "IC50", "setting": "CDK1", "result": 5.94, "unit": "µM"}]}
{"smiles": "O=C1NC(=NCc2cccs2)S/C1=C\\c1ccc2ncccc2c1", "note": "[RO-3306]", "values": [{"measurement": "CDK1 activity", "setting": "CDK1; 1 μM", "result": "around 20%"}, {"measurement": "CDK1 inhibition", "setting": "CDK1; higher concentrations (10 and 100 μM)", "result": 100, "unit": "%"}, {"measurement": "Clearance from the blood plasma", "setting": "[2]", "result": "rapid clearance"}]}
